In patent publication US8633168B2, “Inhibitors of S-adenosyl-L-methionine decarboxylase” (Genzyme Corporation, priority 2007, dated 2014):
Where two headings read alike, the source gives them in different places.

How the values were obtained:
[1] = biological target: CYP2C9 (Homo sapiens, UniProt P11712); experiment: Cytochrome P450 inhibition, CYP2C9
Excerpt: This cytochrome P450 high throughput IC50 inhibition assay is utilized for screening potential inhibitors of the 5 major human CYP isozyme catalytic activities (CYP3A4, 2D6, 2C9, 2C19, and 1A2).

[2] = test system: T. b. brucei - STIB795; experiment: In vivo efficacy, acute T. b. brucei STIB795 infection model in mice; set-up: species or system mouse (NMRI); conditions: for average (survival days) / cured/infected: 4 × 50 mg/kg i.p., NMRI mice; for average (survival days): control 6; for activity in the model (lengthening the survival days) / mice cured: STIB795 model, footnote of Table 4; for protection from lethal effects of infection: controls died on average by Day 6
Method: Compounds are tested for efficacy in the acute model for T. b. brucei infection (Bitonti A J, Byers T L, Bush T L, Casara P J, Bacchi C J, Clarkson A B, Jr., McCann P P, Sjoerdsma A, 1990. Cure of Trypanosoma brucei brucei and Trypanosoma brucei rhodesiense infections in mice with an irreversible inhibitor of S-adenosylmethionine decarboxylase. Antimicrob Agents Chemother 34: 1485-1490). Briefly, mice are infected with 1×10^4 strain STIB 795 trypanosomes on Day 0, then treated once/day (50 mg/kg i.p) with test compound for 4 days starting on Day 3. Animals are assessed by microscopic examination of blood smears twice/week through Day 60. Untreated animals generally die by Days 7-9.

[3] = physchem
[4] = read-out: CYP IC50 2C9, Example 12 chart

Chain of CYP2C9 (P11712 whole entry): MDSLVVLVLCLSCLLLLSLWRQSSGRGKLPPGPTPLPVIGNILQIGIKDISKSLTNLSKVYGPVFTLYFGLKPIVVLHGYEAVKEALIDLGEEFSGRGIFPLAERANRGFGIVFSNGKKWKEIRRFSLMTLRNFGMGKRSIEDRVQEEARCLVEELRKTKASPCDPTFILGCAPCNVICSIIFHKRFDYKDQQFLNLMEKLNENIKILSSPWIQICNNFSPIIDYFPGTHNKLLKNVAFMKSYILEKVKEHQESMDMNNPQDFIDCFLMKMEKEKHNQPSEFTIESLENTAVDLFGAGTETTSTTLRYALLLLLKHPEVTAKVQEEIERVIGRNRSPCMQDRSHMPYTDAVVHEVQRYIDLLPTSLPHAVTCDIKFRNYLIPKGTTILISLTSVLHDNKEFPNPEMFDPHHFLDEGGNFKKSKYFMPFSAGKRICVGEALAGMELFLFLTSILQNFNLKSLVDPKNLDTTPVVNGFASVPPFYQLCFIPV

SMILES	IC50 [1] [µM]	IC50 [1, 4] [µM]	survival of treated animals [2]	average (survival days) [2] [days]	cured/infected ([2]; >30 Days)	activity in the model (lengthening the survival days) [2]	protection from lethal effects of infection [2]	further results
CN(C/C=C\CN)C[C@H]1O[C@@H](n2cnc3c(N)ncnc32)[C@H](F)[C@@H]1O (stereo in doubt) [Compound 1]	–	–	–	–	–	–	–	IC50 ([1]; human, probe fluorometric substrates (not named)): > 5 µM
Cc1nc2c(N)ncnc2n1[C@@H]1O[C@H](CN(C)C/C=C\CN)[C@@H](O)[C@H]1O (stereo in doubt) [Compound 4]	> 5	> 5	all survived through Day 30	>30	1/4	active in the model in terms of lengthening the survival days	protected mice from lethal effects of infection	cured/infected ([2]; 20 Days): 20 Days 0/4; parasites on Day 20 ([2]; Day 20): appeared free of parasites; parasites on Day 30 ([2]; Day 30): parasites were again evident; mice cured ([2]; listed as Compound No. 4): ¼
CN(C/C=C\CN)C[C@H]1O[C@@H](n2cnc3c(N)ncnc32)[C@@H](F)[C@@H]1O [Compound 2]	> 5	> 5	–	–	–	–	–	–
CN(C/C=C\CN)C[C@H]1O[C@@H](n2cnc3c(N)nc(Cl)nc32)[C@H](O)[C@@H]1O [Compound 3]	> 5	> 5	–	–	–	–	–	–
CN(C/C=C\CN)CC1OC(n2cnc3c(N)ncnc32)C(O)C1O (centres unmarked) [MDL-73811, reference compound]	> 5	> 5	all survived through Day 30	>30	1/4	active in the model in terms of lengthening the survival days	protected mice from lethal effects of infection	logD [3]: -1.8; cured/infected ([2]; 26 Days): 26 Days 2/4; mice cured [2]: ¼
